The test system of this series is HeLa cells. The experiment in a line: MTT cytotoxicity test in HeLa cells. It is filed as cell-based. The following applies: different concentrations, FIG. 4. As to the method:
Each of Dox and albumin-peptide-Dox at different concentrations was added to HeLa cells and then a 3-(4,5-dimethylthiazol-2-yl)-2,5-diphenyltetrazolium bromide (MTT) assay was performed to evaluate cytotoxicity.
A general note: Formazan colour is commonly taken as a measure of viable cells.

Each structure is given as a SMILES string.

Turning to `COc1cccc2c1C(=O)c1c(O)c3c(c(O)c1C2=O)C[C@@](O)(C(=O)CO)C[C@@H]3O[C@H]1C[C@H](N)[C@H](O)[C@H](C)O1` [Dox, doxorubicin], the “cytotoxicity (MTT assay)” value is reported as “the level of cytotoxicity was increased in proportion to the concentration”.
